Reference: ChEMBL document CHEMBL1122882, “3,4-O-diacetylisoproterenol. Preparation, structure proof, and beta-receptor effect” (1985)

Species: Rattus norvegicus
Assay: Evaluated for the efficacy in stimulating cAMP synthesis by beta-1-adrenoceptor in rat cerebral cortex.
Assay type: functional

| Compound | Efficacy |
| --- | --- |
| CC(=O)Oc1ccc(C(Cl)CNC(C)C)cc1OC(C)=O (configuration not stated) | 1 |
| CC(=O)Oc1ccc(C(O)CNC(C)C)cc1OC(C)=O (configuration not stated) [DIACETYLISOPROTERENOL] | 1 |
